# In US4504414A, “Synthetic pyridyl-alanyl decapeptides having antiovulatory activity” (Board of Regents, The University of Texas System, priority 1983, dated 1985):
# “And” between values parts separate entries of the source, which are not always exact repeats. Identical values can stand only once. Like-named read-outs stand apart in the source and are kept apart here.
# Columns and labels:
# ovulation in rats [1] = test: Inhibition of ovulation in rats, subcutaneous administration; assay type: in vivo, rat; details: for inhibition of ovulation: 40 hrs before anticipated ovulation
# Procedure: (§1) Biological Assays. The peptides were assayed for activity to inhibit ovulation in rats, as described [J. Humphries, Y.-P. Wan, K. Folkers and C. Y. Bowers; J. Med. Chem. 21, 120-123 (1978)]. The procedure for assay when the antagonist is administered orally is the same except for the route of administration.
# ovulation in rats [2] = details: data of Coy et al., cited from earlier work
# ovulation in the rat = test: Assays of antagonists for oral activity (inhibition of ovulation in the rat); assay type: in vivo
# Procedure: as §1
# Analogs I, XI and XII were also tested by the oral route of administration for inhibition of ovulation in the rat, since the projected human application would be by oral administration. The data in Table 3 resulted from the administration at noon. When the administration is at 2:30 PM, effectiveness is reduced, presumably because of the LH surge. Analog I caused 100% AOA at a 2 mg dosage with administration at noon and 71% AOA/2 mg and 50% AOA/1 mg by administration at 2:30 PM Nekola et al. [Science 218, 160-162 (1982)] have reported on the oral activity of I under diverse conditions.
substance,measurement,setting,value
"[N--Ac--(pCl--D-Phe)^1,2,D-Trp^3,D-Arg^6,D-Ala^10 ]--LHRH [Analog I, reference compound]",% AOA (% inhibition of ovulation in rats),ovulation in rats [1]; dose 1.0 μg,83%
same,Rats ovu./No. rats,ovulation in rats [1]; dose 1.0 μg,1/6
same,% AOA (% inhibition of ovulation in rats),ovulation in rats [2]; dose 0.75 μg,40%
same,Rats ovu./No. rats,ovulation in rats [2]; dose 0.75 μg,6/10
same,% AOA (% inhibition of ovulation in rats),ovulation in rats [2]; dose 1.5 μg,100%
same,Rats ovu./No. rats,ovulation in rats [2]; dose 1.5 μg,0/10
same,% AOA,"ovulation in the rat; 1 mg, administered at 2:30 PM",50%
same,% AOA,"ovulation in the rat; 2 mg, administered at 2:30 PM",71%
same,% AOA,"ovulation in the rat; 2 mg, administered at noon",100%
same,No. Ova.,"ovulation in the rat; 2 mg, administered at noon",0
same,Rats Ovu./No. Rats,"ovulation in the rat; 2 mg, administered at noon",0/8
"[N--Ac--(pCl--D-Phe)^1,2,D-3-Pal^3,D-Arg^6,D-Abu^10 ]--LHRH [Analog IX]",% AOA (% inhibition of ovulation in rats),ovulation in rats [1]; dose 1.0 μg,10%
same,Rats ovu./No. rats,ovulation in rats [1]; dose 1.0 μg,9/10
"[N--Ac--D-2-Nal^1,pCl--D-Phe^2,D-3-Pal^3,D-Arg^6, D-Ala^10 ]--LHRH [Analog XI]",inhibition of ovulation,ovulation in rats [1]; 10 μg,100%
same,inhibition of ovulation,ovulation in rats [1]; 30 μg,100%
same,inhibition of ovulation,ovulation in rats [1]; 100 μg,100%
same,% AOA (% inhibition of ovulation in rats),ovulation in rats [1]; dose 0.25 μg,57%
same,Rats ovu./No. rats,ovulation in rats [1]; dose 0.25 μg,3/7
same,% AOA (% inhibition of ovulation in rats),ovulation in rats [1]; dose 0.5 μg,100%
same,Rats ovu./No. rats,ovulation in rats [1]; dose 0.5 μg,0/9
same,% AOA,"ovulation in the rat; 250 μg, administered at noon",10%
same,No. Ova.,"ovulation in the rat; 250 μg, administered at noon",13.0 ± 1.8
same,Rats Ovu./No. Rats,"ovulation in the rat; 250 μg, administered at noon",9/10
same,% AOA,"ovulation in the rat; 500 μg, administered at noon",56%
same,No. Ova.,"ovulation in the rat; 500 μg, administered at noon",6.1 ± 2.5
same,Rats Ovu./No. Rats,"ovulation in the rat; 500 μg, administered at noon",4/9
"[N--Ac--(pCl--D-Phe)^1,2,D-3-Pal^3,6,D-Ala^10 ]--LHRH [Analog V]",% AOA (% inhibition of ovulation in rats),ovulation in rats [1]; dose 1.0 μg,50%
same,Rats ovu./No. rats,ovulation in rats [1]; dose 1.0 μg,5/10
same,% AOA (% inhibition of ovulation in rats),ovulation in rats [1]; dose 3.0 μg,100%
same,Rats ovu./No. rats,ovulation in rats [1]; dose 3.0 μg,0/7
"[N--Ac--3,4-diCl--D-Phe^1,pCl--D-Phehu 2,D-3-Pal^3,D-Arg^7, D-Ala^10 ]--LHRH [Analog XII]",Rats ovu./No. rats,ovulation in rats [1]; dose 0.25 μg,9/9
same,% AOA (% inhibition of ovulation in rats),ovulation in rats [1]; dose 0.5 μg,82%
same,Rats ovu./No. rats,ovulation in rats [1]; dose 0.5 μg,9/11
same,No. Ova.,"ovulation in the rat; 250 μg, administered at noon",12.2 ± 1.0
same,Rats Ovu./No. Rats,"ovulation in the rat; 250 μg, administered at noon",5/5
same,% AOA,"ovulation in the rat; 500 μg, administered at noon",63%
same,No. Ova.,"ovulation in the rat; 500 μg, administered at noon",5.6 ± 2.7
same,Rats Ovu./No. Rats,"ovulation in the rat; 500 μg, administered at noon",3/8
"[N--Ac--(pCl--D-Phe)^1,2,D-4-Pal^3,D-Arg^6,D-Ala^10 ]--LHRH [Analog IV]",% AOA (% inhibition of ovulation in rats),ovulation in rats [1]; dose 0.5 μg,14%
same,Rats ovu./No. rats,ovulation in rats [1]; dose 0.5 μg,6/7
same,% AOA (% inhibition of ovulation in rats),ovulation in rats [1]; dose 6.0 μg,33%
same,Rats ovu./No. rats,ovulation in rats [1]; dose 6.0 μg,6/9
"[N--Ac-- (pCl--D-Phe)^1,2,D-Trp^3,D-3-Pal^6,D-Ala^10 ]--LHRH [Analog VII]",% AOA (% inhibition of ovulation in rats),ovulation in rats [1]; dose 2.0 μg,13%
"[N--Ac--(pCl--D-Phe)^1,2,D-3-Pal^3,D-Arg^6,D-Ala^10 ]--LHRH [Analog II]",% AOA (% inhibition of ovulation in rats),ovulation in rats [1]; dose 0.5 μg,58%
same,Rats ovu./No. rats,ovulation in rats [1]; dose 0.5 μg,8/19
same,% AOA (% inhibition of ovulation in rats),ovulation in rats [1]; dose 1.0 μg,78%
same,Rats ovu./No. rats,ovulation in rats [1]; dose 1.0 μg,3/14
"[N--Ac--(pCl--D-Phe)^1,2,D-3-Pal^3,D-Trp^6,D-Ala^10 ]--LHRH [Analog VIII]",Rats ovu./No. rats,ovulation in rats [1]; dose 1.0 μg,10/10
"[N--Ac--(pCl--D-Phe)^1,2,D-3-Pal^3,6 ]--LHRH [Analog X]",% AOA (% inhibition of ovulation in rats),ovulation in rats [1]; dose 1.0 μg,17%
same,Rats ovu./No. rats,ovulation in rats [1]; dose 1.0 μg,5/6
same,% AOA (% inhibition of ovulation in rats),ovulation in rats [1]; dose 3.0 μg,86%
same,Rats ovu./No. rats,ovulation in rats [1]; dose 3.0 μg,1/7
"[N--Ac--(pCl--D-Phe)^1,2,D-2-Pal^3,D-Arg^6,D-Ala^10 ]--LHRH [Analog III]",% AOA (% inhibition of ovulation in rats),ovulation in rats [1]; dose 1.0 μg,29%
same,Rats ovu./No. rats,ovulation in rats [1]; dose 1.0 μg,5/7
"[N--Ac--(pCl--D-Phe)^1,2,D-4-Pal^3,6,D-Ala^10 ]--LHRH [Analog VI]",% AOA (% inhibition of ovulation in rats),ovulation in rats [1]; dose 6.0 μg,63% and 62.5%
same,Rats ovu./No. rats,ovulation in rats [1]; dose 6.0 μg,3/8
